Test results: patent publication US6884792B2, “Bretylium compositions and kits and their use in preventing and treating cardiovascular conditions” (priority 1999, dated 2005)
Where a name gives a salt, the structure may show the parent alone. Read-outs that look alike come from different tables or passages of the source. Blank lines part the entries; values can stand above or below the molecule they belong to.

How the values were obtained:
[1] = system: Mongrel dogs; assay: Oral bretylium-tosylate/facilitating-anion combinations: VFT and EVRP; assay type: in vivo; conditions: dog; 50 milliamps
Protocol: A catheter electrode was passed under fluoroscopic observation via the jugular vein into the apex of the right ventricle and screwed into place in the myocardium of the right ventricle. […] After the control VFT and EVRP were measured, the compositions were orally administered in capsule form via a stomach tube. […] The VFT and EVRP were measured at various times following this administration. […] See also FIGS. 8-10.

[2] = system: dogs; assay: VFT 1-5 hours after injection of bretylium tosylate and/or β-receptor blockers; assay type: in vivo, dog
Protocol: The increase in efficacy of the bretylium cation afforded by administering the bretylium cation in combination with a β-receptor blocker was tested by administering via injection bretylium tosylate alone, various β-receptor blockers alone, and various combinations of bretylium tosylate and β-receptor blockers to dogs, and then measuring the ventricular fibrillation threshold of the dogs 1-5 hours after drug administration.

[3] = system: mongrel dog
Protocol: At time zero, a 5 milliamp stimulus was applied and a ventricular fibrillation threshold (VFT) was established.
At 1 hour and 20 minutes, the dog was given a 50 mg/kg dose of bretylium lauryl sulfate salt.
At three hours and twenty minutes, the dog's left anterior coronary artery was ligated to attempt to induce ventricular fibrillation by coronary occlusion.
Next, at three hours and thirty-seven minutes, 50 milliamps (the maximum current) was applied in an attempt to induce ventricular fibrillation and/or atrial fibrillation.

[4] = system: dog; conditions: orally administered to a dog
[5] = Protocol: To measure the partition coefficient for a facilitating anion in the presence of a bretylium compound, an acidified aqueous solution of the bretylium compound with a non-facilitating anion (e.g., tosylate, bromide or chloride) is first prepared. Sodium bicarbonate and a salt comprising the facilitating anion to be tested are then added to the aqueous solution. The salt comprising the facilitating anion should be added in an amount sufficient to provide about a 1:1 molar ratio of the facilitating anion to the bretylium cation. The sodium bicarbonate is provided in an amount sufficient to produce a preselected pH value. An equal volume of n-octanol is then added to this solution. The solution is shaken. The mixture is centrifuged to separate an octanol-rich layer and an aqueous-rich layer, and the distribution ratio of the bretylium cation between the octanol-rich phase and the aqueous-rich phase (that is, the partition coefficient) may be measured. This analytical approach is believed to provide a suitable model for evaluating the bioavailability of the bretylium cation when utilized with a facilitating anion.
Several formulations of the present invention were tested using an n-octanol/aqueous buffer system to measure the partition coefficients for the bretylium cation in the presence of the facilitating anions of those formulations. An acidified aqueous solution of bretylium tosylate was first prepared. Sodium bicarbonate and a salt comprising the facilitating anion to be tested was then added to the aqueous solution. The salt comprising the facilitating anion was added in an amount sufficient to provide a 1:1 molar ratio of the facilitating anion to the bretylium cation. The sodium bicarbonate was provided in an amount sufficient to produce one of 4 preselected pH values. An equal volume of n-octanol was then added to this solution and the solution was shaken. The mixture was centrifuged to separate an octanol layer and an aqueous layer, and the distribution ratio of the bretylium cation between the octanol-rich phase and the aqueous-rich phase (that is, the partition coefficient) was measured. This analytical approach provides a suitable model for evaluating the bioavailability of the bretylium cation in the compositions tested.
The aqueous bretylium tosylate solutions used in the procedure were prepared in the following manner. An amount of one of the buffer solutions described below (3.0 ml when the most acidic buffer solution was used, and 4.0 ml when the other 3 buffer solutions were used) was transferred to a beaker or an Erlenmeyer flask by pipette. To the buffer solution was added 50 mg of bretylium tosylate per ml of buffer solution and an equimolar amount of the sodium salt of the facilitating anion. For example, where the facilitating anion tested was di(2-ethylhexyl)sulfosuccinate, 54 mg of sodium di(2-ethylhexyl)sulfosuccinate was added per ml of buffer solution. […] Test solutions comprising other facilitating agents were prepared in a similar manner.
Each of the pharmaceutical compositions was tested using each of the following sodium bicarbonate buffer systems:
The first buffer solution was prepared by dissolving 1.0 g of sodium bicarbonate in 100 ml of 0.95M HCl. A pH meter equipped with a conventional glass electrode and a calomel reference electrode was used to measure the nominal pH of this solution and the other 3 buffer solutions.
The second buffer solution was prepared by dissolving 7.5 g of sodium bicarbonate in 100 ml of 0.95M HCl.
The third buffer solution was prepared by dissolving 8.0 g of sodium bicarbonate in 100 ml of 0.95M HCl.

[6] = system: mongrel dog; assay: Electrically induced atrial fibrillation, intravenous administration; assay type: in vivo; conditions: single intravenous dose, 15 mg bretylium tosylate per kg
Protocol: This electrode catheter delivered stimulating shocks consisting of a train of square wave pulses of 1 msec duration at 60 Hz. Atrial fibrillation was induced at a current of 6 milliamps.
Defibrillation was first attempted using a single dose of bretylium tosylate (Arnar-Stone, McGaw Park, Ill.) administered intravenously (the dose corresponded to 15 mg of bretylium tosylate per kg of the recipient).
Subsequently, a composition containing bretylium tosylate and aspirin was administered intravenously into the jugular vein. This composition was prepared using a commercially available tablet containing aspirin. The aspirin tablet was dissolved in warm water and filtered through a fine surgical gauze pad (to remove the bulk of the binder in the tablet). The resulting aspirin filtrate was then combined with an approximately equimolar amount of bretylium tosylate dissolved in 5% dextrose in water. Approximately 20 ml of this aqueous solution was injected into jugular vein of the atrially fibrillating dog (this dose corresponded to roughly 15 mg of bretylium tosylate per kg of the recipient and 6.5 mg of aspirin per Kg recipient).

[7] = system: dogs
[8] = water/octanol, relative to chloride; cited from earlier work
[9] = intravenous, about 20 mg bretylium tosylate per kg

Molecule: CC[N+](C)(C)Cc1ccccc1Br.O=C([O-])c1ccccc1O [Bretylium Salicylate, bretylium salicylate]
ventricular or atrial fibrillation despite maximum electrical stimulation [1]: did not occur

Molecule: CC(C)NCC(O)COc1ccc(CC(N)=O)cc1 (centres unmarked) [atenolol]
Mean % Increase in VFT ([2]; per kg: 0.05 mg atenolol, no bretylium, 1-5 hours): 330% ± 210%

Molecule: CCCCCCCCCCCCOS(=O)(=O)[O-].CC[N+](C)(C)Cc1ccccc1Br [bretylium lauryl sulfate salt, bretylium lauryl sulfate]
ventricular or atrial fibrillation despite maximum electrical stimulation [1]: did not occur
rhythm 46 minutes after administration despite attempts to reinitiate atrial fibrillation with electrical stimulation ([3]; FIG. 8 legend): maintained a normal sinus rhythm
fibrillation induced by electrical stimulation at 50 milliamps (maximum current) ([3]; at 3 h 37 min of experiment): No fibrillation (atrial or ventricular) could be induced
time after dose at which atrial fibrillation ceased entirely ([3]; dog, in vivo, 50 mg/kg): 19 min
time after dose to periods of normal sinus rhythm ([3]; dog, in vivo, 50 mg/kg): Approximately 18 minutes
ventricular fibrillation after release of the coronary occlusion ([3]; following two minutes after release at 3 h 35 min): no ventricular fibrillation was observed
ventricular fibrillation on ligation of left anterior coronary artery ([3]; ligated at 3 h 20 min of experiment, 2 h after 50 mg/kg dose): No ventricular fibrillation was observed
antifibrillatory activity [4]: active antifibrilant

Molecule: CC[N+](C)(C)Cc1ccccc1Br.Cc1ccc(S(=O)(=O)[O-])cc1 [bretylium tosylate, 2-bromobenzylethyldimethylammonium p-toluenesulfonate, reference compound]
PARTITION COEFFICIENT ([5]; pH 0.8): 0.33
PARTITION COEFFICIENT ([5]; pH 2.1): 0.48
PARTITION COEFFICIENT ([5]; pH 5.5): 0.45
PARTITION COEFFICIENT ([5]; pH 7.7): 0.49
effect on atrial fibrillation [6]: No effect
Mean % Increase in VFT ([2]; per kg: 20 mg bretylium tosylate, no β-receptor blocker, 1-5 hours after administration): 100-200% (no standard
time after administration at which a substantial increase in ventricular fibrillation threshold began [7, 9]: 12 to 15 min
time after administration of peak increase in ventricular fibrillation threshold [7, 9]: About 3 hours

PARTITION COEFFICIENT ([5]; pH 0.8): 0.35
PARTITION COEFFICIENT ([5]; pH 2.2): 0.49
PARTITION COEFFICIENT ([5]; pH 5.5): 0.51
PARTITION COEFFICIENT ([5]; pH 7.7): 2.33
Molecule: CCCCC(CC)COP(=O)(O)OCC(CC)CCCC (centres unmarked) [di(2-ethylhexyl)phosphate]

PARTITION COEFFICIENT ([5]; pH 5.5): 4.16
PARTITION COEFFICIENT ([5]; pH 5.6): 4.94
PARTITION COEFFICIENT ([5]; pH 7): 5.03
PARTITION COEFFICIENT ([5]; pH 7.7): 3.61
Molecule: CCCCC(CC)COC(=O)CC(C(=O)OCC(CC)CCCC)S(=O)(=O)O (centres unmarked) [di(2-ethylhexyl)sulfosuccinate]

Molecule: COC(=O)CCc1ccc(OCC(O)CNC(C)C)cc1 (centres unmarked) [esmolol]
Mean % Increase in VFT ([2]; per kg: 25 to 300 μg esmolol, no bretylium, 1-5 hours): no significant increase

Molecule: COCCc1ccc(OCC(O)CNC(C)C)cc1 (centres unmarked) [metoprolol]
Mean % Increase in VFT ([2]; per kg: 0.05 mg metoprolol, no bretylium, 1-5 hours): 96% ± 70%

Molecule: CC(C)NCC(O)COc1cccc2ccccc12 (centres unmarked) [propranolol]
Mean % Increase in VFT ([2]; per kg: 0.075 mg propranolol, no bretylium, 1-5 hours): 110% ± 40%
increase in the ventricular fibrillation threshold ([7]; intravenous propranolol alone, 0.05 to 0.5 mg/kg): 110%±40%

Molecule: Cc1ccc(S(=O)(=O)O)cc1 [tosylate anion, tosylate]
organic/aqueous phase distribution constant (K) [8]: about 320

Molecule: lauryl sulfate
PARTITION COEFFICIENT ([5]; n-octanol/buffer, nominal pH 0.8, 1:1 molar facilitating anion:bretylium tosylate): 1.91
PARTITION COEFFICIENT ([5]; n-octanol/buffer, nominal pH 2.2, 1:1 molar facilitating anion:bretylium tosylate): 3.54
PARTITION COEFFICIENT ([5]; n-octanol/buffer, nominal pH 5.5, 1:1 molar facilitating anion:bretylium tosylate): 3.71
PARTITION COEFFICIENT ([5]; n-octanol/buffer, nominal pH 7.0, 1:1 molar facilitating anion:bretylium tosylate): 4.01
